Experiment in all cases: NCI tumour cell line growth inhibition, 48 h
Test [1] has as its system HL-60(TB) leukemia.
Test [2] relates to EKVX NSCLC.
The test system of test [3] is U251 CNS.
For test [4], the system named is HCT-15 colon.
In test [5] the test system is OVCAR-8 ovarian.
Test [6] deals with TK-10 renal.
In test [7] the test system is OVCAR-4 ovarian.
The test system of test [8] is M14 melanoma.
Test [9] has as its system SK-MEL-2 melanoma.

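Where inhibition never reached the appropriate level, the endpoint shown equals the highest concentration tested. Otherwise, values were interpolated linearly from a five-concentration, 48-hour dose response in 96-well plates. The concentration for 50% growth inhibition is given as GI50. TGI: total growth inhibition.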 Some results are limits rather than exact numbers.

`Cc1ccc(S(=O)(=O)OCC/C(=C\[Si](C)(C)C)c2ccccc2)cc1`: the TGI in test [1], in test [2], in [3], in test [4], in test [5] and in test [6] was more than 100 µM in each case. Also, the TGI in [7], in [8] and in test [9] was more than 100 µM each time.
Take `COc1cc(CNc2nc3cc(N)cc(N)c3nc2-c2ccccc2)cc(OC)c1`: the GI50 is 3.84 µM in test [1]; 2.8 µM in [2]; 5.08 µM in test [3]; 19.3 µM in test [4]; 2.8 µM in test [5]; 24.6 µM in [6]. Also, the values for the GI50 in test [7], in [8] and in test [9] were 0.014 µM, 10.1 µM and 7.77 µM, respectively. The TGI in test [1] is more than 100 µM; in test [2], 8.91 µM; in test [3], more than 100 µM; in [4], more than 100 µM; in test [5], 8.1 µM; in test [6] it was 62.3 µM. Further, the TGI was 0.974 µM in test [7], 49.3 µM in [8] and 41 µM in [9].
For the molecule `CC(=O)O[C@H]1C(=O)[C@@]2(C)C([C@H](OC(=O)c3ccccc3)[C@]3(O)C[C@H](OC(=O)[C@H](O)[C@@H](NC(=O)c4ccccc4)c4ccccc4)C(C)=C1C3(C)C)[C@]1(OC(C)=O)CO[C@@H]1C[C@@H]2O` (stereo not given in full), the GI50 was 0.00528 µM in test [1]; 0.0111 µM in test [3]; 0.382 µM in test [4]; 0.00804 µM in test [5]; 0.198 µM in test [7]; 0.0149 µM in test [9]. Moreover, the TGI in [1] was 0.0209 µM; in test [3], more than 50 µM; in [4] it was more than 50 µM; in test [5], more than 50 µM; in test [6] it was more than 50 µM; in test [7], more than 50 µM. The same molecule registered a TGI in [9] of more than 50 µM.
On to `CCc1cccc(C)c1NC(=O)CCc1nc(=S)[nH][nH]1`, for which the TGI in test [1], in [2], in [3], in [4], in test [5] and in test [6] was more than 100 µM throughout. The TGI in test [7], in test [8] and in test [9] was more than 100 µM throughout.
`COc1nc2c(c(O)c(C)c(=O)n2OC2OCC(OC(C)=O)C(OC(C)=O)C2OC(C)=O)c(=O)n1C` (stereo not given): the TGI in [2], in [3], in test [4], in test [5], in [6] and in test [7] was more than 100 µM each time. The TGI in test [8] and in test [9] was more than 100 µM throughout.
`O=c1/c(=C/c2ccccc2[N+](=O)[O-])sc2nnc(-c3cccnc3)n12`: the TGI in test [1], in test [2], in test [4], in test [5], in [6] and in test [7] was more than 100 µM in each case. Moreover, the TGI in test [8] and in [9] was more than 100 µM each time.
`O=C(NC12CC3CCC1CC(C3)C2)[C@@H]1CCCN1C(=O)OCc1ccccc1` (stereo not given in full): the TGI is 73.3 µM in test [1]; more than 100 µM in test [2]; more than 100 µM in [3]; more than 100 µM in test [4]; more than 100 µM in test [5]; more than 100 µM in test [6]. The TGI in test [8] and in test [9] was more than 100 µM in each case.
In the case of `COC(=O)CCC(NC(=S)N/N=C/c1cccs1)C(=O)OC` (stereo not given), the TGI in test [1], in [2], in test [3], in test [4], in test [5] and in test [6] was more than 100 µM throughout. Also, the TGI in test [7], in [8] and in test [9] was more than 100 µM throughout.
Turning to `O=C(NC1C(=O)NNC1c1cccc([N+](=O)[O-])c1)c1ccccc1` (stereo not given), the TGI in test [1], in test [2], in test [3], in test [5], in test [6] and in [7] was more than 100 µM each time. Moreover, the TGI in test [8] and in [9] was more than 100 µM each time.
With `O=C1NC(=O)c2c1n(Cc1ccccc1)c(=O)n2Cc1ccccc1`, the TGI in test [1], in test [2], in test [3], in test [4], in test [5] and in test [6] was more than 100 µM each time. In addition, the TGI in [7], in test [8] and in [9] was more than 100 µM throughout.
As for `CCOC(=O)c1nc(C)oc1C(F)(F)F`, the TGI in test [1], in test [2], in test [3], in test [4], in [5] and in test [6] was more than 100 µM throughout. Also, the TGI in test [7], in test [8] and in [9] was more than 100 µM in each case.
On to `C[C@]12Cc3cn[nH]c3C(=O)C1CC[C@@H]1C2CC[C@@]2(C)C1CC[C@@H]2O` (stereo not given in full), for which the TGI in test [1], in [2], in test [3], in test [4], in test [5] and in [6] was more than 100 µM each time. In addition, the TGI in test [7], in test [8] and in test [9] was more than 100 µM throughout.
In the case of `COc1cc([C@@H]2c3cc4c(cc3[C@@H](NC(=O)c3ccc(C#N)cc3)C3COC(=O)[C@@H]32)OCO4)cc(OC)c1O` (stereo not given in full), the TGI amounted to 11.1 µM in test [1]; 5.73 µM in [2]; 1.26 µM in test [3]; 15.1 µM in test [4]; 6.38 µM in test [5]; 4.86 µM in test [6]. For the same molecule, the figures for the TGI in test [7], in test [8] and in [9] were more than 100 µM, 12.4 µM and 5.56 µM, respectively.
As to `NNC(=O)C(=O)N/N=C1/CCCC1C(=O)CCC(=O)Nc1ccc(Cl)cc1` (stereo not given), the TGI in [1], in test [2], in test [3], in test [4], in test [5] and in test [6] was more than 100 µM in each case. The TGI in test [7], in test [8] and in [9] was more than 100 µM throughout.
As to `O=C1NC2=C(CCCCC/C2=N\O)C12CCCCCC2`, the TGI in [1], in test [2], in test [3], in test [4], in test [5] and in test [6] was more than 100 µM each time. Besides, the TGI in test [7], in test [8] and in test [9] was more than 100 µM each time.
For the molecule `O=[N+]([O-])c1cccc(C2=NN(c3ccccc3)C3c4cc(Br)ccc4OCC23)c1` (stereo not given), the TGI in [1], in test [2], in test [3], in test [5], in [6] and in [9] was more than 100 µM throughout.
On to `Cc1nc2ccccc2nc1CC(=O)C(=O)Nc1ccc(Cl)cc1Cl`, for which the TGI in [1], in [2], in [3], in [4], in test [5] and in [6] was more than 100 µM each time. Also, the TGI in test [7], in [8] and in [9] was more than 100 µM each time.
For `O=C1[C@@H]2C(c3c(Cl)cccc3Cl)=NO[C@@H]2C(=O)N1c1ccc(Cc2ccc(N3C(=O)[C@H]4C(c5c(Cl)cccc5Cl)=NO[C@H]4C3=O)cc2)cc1`, the TGI in test [1], in test [2], in [3], in test [4], in [5] and in [6] was more than 100 µM each time. In addition, the TGI in [7], in test [8] and in test [9] was more than 100 µM each time.
Take `O=[N+]([O-])c1ccccc1C1SCc2nc3ccccc3n21` (stereo not given): the TGI in test [1], in [2], in [3], in test [5], in test [6] and in test [7] was more than 100 µM throughout. For the same molecule, the TGI in test [9] is more than 100 µM.
`COc1cc(Nc2cnc3ccc(C(F)(F)F)cc3n2)cc(OC)c1OC`: the TGI in [1], in test [2], in [3], in test [4], in test [5] and in test [6] was more than 100 µM in each case. This molecule registered a TGI in [9] of more than 100 µM.
`COC(=O)C1C(=O)O[C@@H](c2ccc3c(c2)OCO3)C1C(=O)OC` (mixture of isomers): the TGI in test [1], in test [2], in test [3], in test [4], in test [5] and in test [6] was more than 100 µM in each case. Further, the TGI in test [7] and in [8] was more than 100 µM in each case.
